Literature values in article PMC10151178 (Brain, 2023).

Tested on: IIH patients
Source text: The minimal clinically important change in ICP in those with IIH has yet to be determined.[38] […] In this trial ...

For CC(=O)Nc1nnc(S(N)(=O)=O)s1 [acetazolamide], the “Magnitude of treatment effect on ICP between trial arms” value (acetazolamide and diet) is given as 5.9 cmCSF and the “Patients who withdrew due to adverse effects” value (over a 3-month period, previous randomized controlled trial) is given as 48%.
